In article PMC9403976, “Elucidating the path to Plasmodium prolyl-tRNA synthetase inhibitors that overcome halofuginone resistance” (Nature Communications, 2022):
Where “and” joins values, the source holds several entries; their conditions need not be identical. Identical values can stand only once. Like-named read-outs stand apart in the source and are kept apart here.

Tests used:
P. falciparum Dd2-2D4 = experiment: P. falciparum asexual blood stage (ABS) growth assay, SYBR Green, 72 h, wild-type parasites; assay type: cell-based, Plasmodium falciparum; details: for ABS growth dose-response, normalized signal (Replicates 1-3): Dd2-2D4
[1] = tested on: halofuginone-induced P. falciparum (elevated proline homeostasis); experiment: P. falciparum ABS growth assay, SYBR Green, 72 h, halofuginone-induced parasites; assay type: cell-based, Plasmodium falciparum
Source text: Parasites were maintained under standard culture conditions as described previously[56],[57]. […] The P. falciparum Dd2 cell lines used in this study (Dd2-2D4, halofuginone-induced, and HFGR-I) have previously undergone whole genome sequencing in our labs. They were also routinely assayed and EC50 values determined using the ABS growth assay (see below) with a panel of standard antimalarial compounds, including halofuginone which has differential activity for the three Dd2 lines used in these experiments. Data were cross-referenced for consistency with literature reported values and data previously acquired in the lab.
This assay was performed as previously described. In short, P. falciparum erythrocytic-stage parasites at 1% parasitemia and 1% hematocrit in RPMI + 0.5% Albumax were seeded at 40 μL/well in 384-well plates with test compounds in triplicate, dose-response format with 10 μM dihydroartemisinin as a kill-control and blank (no compound) wells as a growth-control. […] After 72 h, growth was quantified by measuring fluorescence (Molecular Devices SpectraMax iD5) following SYBR Green 1 staining. Data were analyzed in Excel and plotted in PRISM (V. 8.4.3–9.1.0, GraphPad).

PfcProRS = target: T1, PfcProRS (Plasmodium falciparum, UniProt Q8I5R7); assay type: binding; details: single replicates
T1 construct: made in house; host or cells: E. coli SoluBL-21

HsProRS = HsProRS (Homo sapiens, UniProt P07814); experiment: TR-FRET ligand displacement assay with tracer MAT379 (CoraFluor-1-Halo and anti-His6 antibody formats); assay type: binding; design: made in house; host or cells: E. coli SoluBL-21; details: for TR-FRET dose-response, normalized signal (SI Fig 11): individual replicates
Sequence of HsProRS (P07814 996-1512): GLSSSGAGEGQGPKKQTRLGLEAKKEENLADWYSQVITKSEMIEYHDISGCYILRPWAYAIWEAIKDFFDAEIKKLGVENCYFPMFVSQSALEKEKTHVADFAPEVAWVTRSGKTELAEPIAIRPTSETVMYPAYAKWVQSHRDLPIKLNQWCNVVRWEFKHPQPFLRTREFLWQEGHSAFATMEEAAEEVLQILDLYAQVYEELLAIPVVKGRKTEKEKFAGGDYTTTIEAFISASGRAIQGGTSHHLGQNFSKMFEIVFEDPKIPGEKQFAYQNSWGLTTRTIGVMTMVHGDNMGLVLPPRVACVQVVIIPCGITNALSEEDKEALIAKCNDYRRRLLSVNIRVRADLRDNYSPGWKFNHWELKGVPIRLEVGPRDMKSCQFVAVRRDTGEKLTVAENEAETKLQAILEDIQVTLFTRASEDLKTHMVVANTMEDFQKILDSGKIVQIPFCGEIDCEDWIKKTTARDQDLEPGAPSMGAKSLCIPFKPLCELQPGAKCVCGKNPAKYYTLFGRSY

T1 sequence (Q8I5R7 249-746): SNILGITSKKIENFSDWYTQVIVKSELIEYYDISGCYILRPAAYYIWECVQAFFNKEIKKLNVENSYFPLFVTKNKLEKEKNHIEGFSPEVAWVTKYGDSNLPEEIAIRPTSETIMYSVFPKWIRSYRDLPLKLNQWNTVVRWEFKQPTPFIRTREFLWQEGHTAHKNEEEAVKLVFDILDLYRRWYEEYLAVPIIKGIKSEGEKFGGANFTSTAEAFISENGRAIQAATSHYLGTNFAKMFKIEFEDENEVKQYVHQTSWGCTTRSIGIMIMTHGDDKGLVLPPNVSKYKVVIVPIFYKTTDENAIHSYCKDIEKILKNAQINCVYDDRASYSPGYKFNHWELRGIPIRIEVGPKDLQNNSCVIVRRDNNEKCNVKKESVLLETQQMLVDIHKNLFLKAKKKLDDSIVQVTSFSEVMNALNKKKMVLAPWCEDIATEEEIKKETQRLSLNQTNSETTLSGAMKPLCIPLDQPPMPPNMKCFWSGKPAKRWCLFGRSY

O=C(NC1Cc2ccccc2C1)c1nccnc1NC(=O)C1CCC1 [compound 20]
ABS growth dose-response, normalized signal (Replicates 1-3) (P. falciparum Dd2-2D4; Log[inhibitor] (M) -5.000): 1
ABS growth dose-response, normalized signal (Replicates 1-3) (P. falciparum Dd2-2D4; Log[inhibitor] (M) -5.301): 7
EC50 (P. falciparum Dd2-2D4; Plasmodium falciparum, DD2, SI Fig 16b, values on -log scale, read-out: ABS - Dd2-2D4 (converted)): 3740 nM
dose-response value, Replicates 1-3 (SI Fig 2e) ([1]; Log[inhibitor] (M) -8.699): 102
dose-response value, Replicates 1-3 (SI Fig 2e) ([1]; Log[inhibitor] (M) -9.000): 101
dose-response signal (normalized), SI Fig 8 (PfcProRS; Log[inhibitor] (M) -5.000): -3.34E-02 and -2.16E-02 and 4.43E-02
dose-response signal (normalized), SI Fig 8 (PfcProRS; Log[inhibitor] (M) -5.301): 9.72E-02 and 2.14E-03 and 9.57E-02
dose-response signal (normalized), SI Fig 8 (PfcProRS; Log[inhibitor] (M) -5.601): 1.29E-01 and 1.68E-01 and 1.72E-01
dose-response signal (normalized), SI Fig 8 (PfcProRS; Log[inhibitor] (M) -5.904): 2.39E-01 and 2.05E-01 and 1.23E-01
dose-response signal (normalized), SI Fig 8 (PfcProRS; Log[inhibitor] (M) -6.208): 3.45E-01 and 2.90E-01 and 4.22E-01
dose-response signal (normalized), SI Fig 8 (PfcProRS; Log[inhibitor] (M) -6.509): 6.21E-01 and 6.16E-01 and 6.02E-01
dose-response signal (normalized), SI Fig 8 (PfcProRS; Log[inhibitor] (M) -6.796): 8.63E-01 and 8.36E-01 and 8.81E-01
dose-response signal (normalized), SI Fig 8 (PfcProRS; Log[inhibitor] (M) -7.108): 1.04E+00 and 9.78E-01 and 9.41E-01
dose-response signal (normalized), SI Fig 8 (PfcProRS; Log[inhibitor] (M) -7.409): 1.10E+00 and 1.00E+00 and 1.03E+00
dose-response signal (normalized), SI Fig 8 (PfcProRS; Log[inhibitor] (M) -7.710): 1.05E+00 and 1.02E+00 (2×)
dose-response signal (normalized), SI Fig 8 (PfcProRS; Log[inhibitor] (M) -8.000): 1.14E+00 and 1.06E+00 and 1.15E+00
dose-response signal (normalized), SI Fig 8 (PfcProRS; Log[inhibitor] (M) -8.301): 1.07E+00 and 1.03E+00 and 9.53E-01
dose-response signal (normalized), SI Fig 8 (PfcProRS; Log[inhibitor] (M) -8.602): 1.04E+00 and 1.07E+00 and 9.70E-01
dose-response signal (normalized), SI Fig 8 (PfcProRS; Log[inhibitor] (M) -9.000): 1.05E+00 and 1.02E+00 and 1.08E+00
dose-response signal (normalized), SI Fig 8 (PfcProRS; Log[inhibitor] (M) -9.301): 1.08E+00 and 9.05E-01 and 9.37E-01
Kd (HsProRS; HsProRS (KD [nM]) mean, no added proline/ATP (-)): 738 nM
Kd (HsProRS; HsProRS - best Kd, SI Fig 16a, values on -log scale): 13.2 nM
normalized TR-FRET ligand displacement signal, dose-response replicates (SI Fig 6) (HsProRS; Log[inhibitor] (M) -5.000): 1.86E-01 and 1.74E-01 and 2.39E-01
TR-FRET dose-response, normalized signal (SI Fig 11) (HsProRS; Log[inhibitor] (M) -5.000): 1.04E-01 and 5.16E-02 and 1.08E-01
normalized TR-FRET ligand displacement signal, dose-response replicates (SI Fig 6) (HsProRS; Log[inhibitor] (M) -5.301): 4.97E-01 and 4.61E-01 and 4.31E-01
TR-FRET dose-response, normalized signal (SI Fig 11) (HsProRS; Log[inhibitor] (M) -5.301): 1.41E-01 and 1.42E-01 and 1.77E-01
normalized TR-FRET ligand displacement signal, dose-response replicates (SI Fig 6) (HsProRS; Log[inhibitor] (M) -5.601): 6.11E-01 and 7.58E-01 and 7.79E-01
TR-FRET dose-response, normalized signal (SI Fig 11) (HsProRS; Log[inhibitor] (M) -5.601): 3.04E-01 and 2.78E-01 and 2.50E-01
normalized TR-FRET ligand displacement signal, dose-response replicates (SI Fig 6) (HsProRS; Log[inhibitor] (M) -5.904): 8.89E-01 and 8.92E-01 and 8.45E-01
TR-FRET dose-response, normalized signal (SI Fig 11) (HsProRS; Log[inhibitor] (M) -5.904): 4.25E-01 and 3.97E-01 and 4.79E-01
normalized TR-FRET ligand displacement signal, dose-response replicates (SI Fig 6) (HsProRS; Log[inhibitor] (M) -6.208): 9.16E-01 and 8.68E-01 and 9.52E-01
TR-FRET dose-response, normalized signal (SI Fig 11) (HsProRS; Log[inhibitor] (M) -6.208): 6.09E-01 and 5.97E-01 and 5.95E-01
normalized TR-FRET ligand displacement signal, dose-response replicates (SI Fig 6) (HsProRS; Log[inhibitor] (M) -6.509): 1.03E+00 and 8.94E-01 and 8.53E-01
TR-FRET dose-response, normalized signal (SI Fig 11) (HsProRS; Log[inhibitor] (M) -6.509): 6.97E-01 and 7.43E-01 and 6.91E-01
normalized TR-FRET ligand displacement signal, dose-response replicates (SI Fig 6) (HsProRS; Log[inhibitor] (M) -6.796): 1.03E+00 (2×) and 1.11E+00
TR-FRET dose-response, normalized signal (SI Fig 11) (HsProRS; Log[inhibitor] (M) -6.796): 8.43E-01 and 8.17E-01 and 8.38E-01
normalized TR-FRET ligand displacement signal, dose-response replicates (SI Fig 6) (HsProRS; Log[inhibitor] (M) -7.108): 9.80E-01 and 1.08E+00 and 1.02E+00
TR-FRET dose-response, normalized signal (SI Fig 11) (HsProRS; Log[inhibitor] (M) -7.108): 8.72E-01 and 8.51E-01 and 8.01E-01
normalized TR-FRET ligand displacement signal, dose-response replicates (SI Fig 6) (HsProRS; Log[inhibitor] (M) -7.409): 9.83E-01 and 1.12E+00 and 9.82E-01
TR-FRET dose-response, normalized signal (SI Fig 11) (HsProRS; Log[inhibitor] (M) -7.409): 9.24E-01 and 8.62E-01 and 9.39E-01
normalized TR-FRET ligand displacement signal, dose-response replicates (SI Fig 6) (HsProRS; Log[inhibitor] (M) -7.710): 9.31E-01 and 9.49E-01 and 8.80E-01
TR-FRET dose-response, normalized signal (SI Fig 11) (HsProRS; Log[inhibitor] (M) -7.710): 9.14E-01 and 9.13E-01 and 9.09E-01
normalized TR-FRET ligand displacement signal, dose-response replicates (SI Fig 6) (HsProRS; Log[inhibitor] (M) -8.000): 1.05E+00 and 9.80E-01 and 9.83E-01
TR-FRET dose-response, normalized signal (SI Fig 11) (HsProRS; Log[inhibitor] (M) -8.000): 9.16E-01 and 9.29E-01 and 9.47E-01
normalized TR-FRET ligand displacement signal, dose-response replicates (SI Fig 6) (HsProRS; Log[inhibitor] (M) -8.301): 9.29E-01 and 1.08E+00 and 8.52E-01
TR-FRET dose-response, normalized signal (SI Fig 11) (HsProRS; Log[inhibitor] (M) -8.301): 9.16E-01 and 9.69E-01 and 9.32E-01
normalized TR-FRET ligand displacement signal, dose-response replicates (SI Fig 6) (HsProRS; Log[inhibitor] (M) -8.602): 9.34E-01 and 1.03E+00 and 1.00E+00
TR-FRET dose-response, normalized signal (SI Fig 11) (HsProRS; Log[inhibitor] (M) -8.602): 9.06E-01 and 9.54E-01 and 9.32E-01
normalized TR-FRET ligand displacement signal, dose-response replicates (SI Fig 6) (HsProRS; Log[inhibitor] (M) -9.000): 1.01E+00 and 9.37E-01 and 8.87E-01
TR-FRET dose-response, normalized signal (SI Fig 11) (HsProRS; Log[inhibitor] (M) -9.000): 9.11E-01 and 9.90E-01 and 9.12E-01
normalized TR-FRET ligand displacement signal, dose-response replicates (SI Fig 6) (HsProRS; Log[inhibitor] (M) -9.301): 9.68E-01 and 9.96E-01 and 9.12E-01
TR-FRET dose-response, normalized signal (SI Fig 11) (HsProRS; Log[inhibitor] (M) -9.301): 9.37E-01 and 9.39E-01 and 8.38E-01
